Active and inactive are the calls of the source. The rule behind the calls is not given here.
Experiments:
PC12 [1] = assay: Activation of Nrf2-ARE pathway in rat PC-12 cells assessed as increase in Nrf2 expression level in cytoplasm at 10 uM incubated for 3 hrs by Western blot analysis; type: cell-based; settings: filed as activator
PC-12 [2] = assay: Anti-apoptotic activity against H2O2-induced apoptosis in rat PC12 cells assessed as late apoptotic cells at 2.5 uM preincubated for 12 hrs followed by replacement with fresh media and H2O2 stimulation for 12 hrs by Annexin-V/7-AAD staining based flow cytometry (Rvb=2.2 %); type: functional
PC-12 [3] = assay: Cytotoxicity against rat PC12 cells assessed as cell viability at 6.25 to 100 uM incubated for 24 hrs by MTT assay; type: toxicity, cell-based; settings: pc-12, 24 h, dose 6.25-100 µM
PC-12 [4] = assay: Neuroprotective activity against H2O2-induced cytotoxicity in rat PC12 cells assessed as increase in cell viability at 10 uM preincubated for 12 hrs followed by replacement with fresh media and H2O2 stimulation for 12 hrs by MTT assay; type: functional, cell-based
PC-12 [5] = assay: Neuroprotective activity against H2O2-induced cytotoxicity in rat PC12 cells assessed as increase in cell viability at 10 uM pretreated with Brusatol for 1hrs and preincubated for 12 hrs followed by replacement with fresh media and H2O2 stimulation for 12 hrs by MTT assay; type: functional, cell-based
PC12 [6] = assay: Activation of Nrf2-ARE pathway in rat PC-12 cells assessed as increase in Nrf2 expression level in nucleus at 10 uM incubated for 3 hrs by Western blot analysis; type: cell-based; settings: filed as activator
PC-12 [7] = assay: Neuroprotective activity against rat PC12 cells assessed as decrease in H2O2-induced mitochondrial membrane potential level at 10 uM preincubated for 12 hrs followed by replacement with fresh media and H2O2 stimulation for 12 hrs by JC-1 dye based flow cytometry (Rvb=95.3%); type: functional; parameters: scale not given: the % may be the effect or the level left
[8] = Toxicity in okadaic acid-induced cognitive impairment ICR mouse model assessed as body weight change at 0.08 to 0.24 mg/kg, iv twice at 3days interval before and after okadaic acid stimulation measured upto 14 days; type: organism-based; settings: in vivo, 336 h, dose 0.08-0.24 mg/kg, time < 14 day
PC-12 [9] = assay: Neuroprotective activity against rat PC12 cells assessed as decrease in H2O2-induced intracellular ROS production at 2.5 to 10 uM preincubated for 12 hrs followed by replacement with fresh media and H2O2 stimulation for 12 hrs by DCFH-DA staining based flow cytometry; type: functional, cell-based; settings: dose 2.5-10 µM
PC-12 [10] = assay: Neuroprotective activity against rat PC12 cells assessed as decrease in H2O2-induced intracellular Ca2+ level at 10 uM preincubated for 12 hrs followed by replacement with fresh media and H2O2 stimulation for 12 hrs by Fluo-3 AM based flow cytometry relative to control; type: functional; parameters: scale not given: the % may be the effect or the level left
Mus musculus = assay: Antialzheimer activity in okadaic acid-induced cognitive impairment ICR mouse model assessed as increase in number of groups crossing virtual platform at 0.08 to 0.24 mg/kg, iv twice at 3days interval before and after okadaic acid stimulation measured upto 14 days by Morris water maze test relative to control; type: functional, organism-based; settings: dose 0.08-0.24 mg/kg, time <= 14.0 day
PC-12 [11] = assay: Anti-apoptotic activity against H2O2-induced apoptosis in rat PC12 cells assessed as early apoptotic cells at 5 uM preincubated for 12 hrs followed by replacement with fresh media and H2O2 stimulation for 12 hrs by Annexin-V/7-AAD staining based flow cytometry (Rvb=0.8%); type: functional
PC-12 [12] = assay: Neuroprotective activity against rat PC12 cells assessed as decrease in H2O2-induced intracellular Ca2+ level at 5 uM preincubated for 12 hrs followed by replacement with fresh media and H2O2 stimulation for 12 hrs by Fluo-3 AM based flow cytometry relative to control; type: functional; parameters: scale not given: the % may be the effect or the level left

COc1ccc(-c2ocnc2C(=O)NCCCc2ccc(NC(=O)/C=C/c3cc(C(C)(C)C)c(O)c(C(C)(C)C)c3)cc2)cc1Cl
Activity (PC12 [1]): Active | Activity (PC-12 [2]): 16.4% | Activity (PC-12 [3]): Non-Toxic | Activity (PC-12 [4]): Active | Activity (PC-12 [5]): inactive | Activity (PC12 [6]): Active | Activity (PC-12 [7]): 81.3% | Activity [8]: Non-Toxic | Activity (PC-12 [9]): Dose-Dependent Effect | Activity (PC-12 [10]): 31.1% | Activity (Mus musculus): Active | Activity (PC-12 [11]): 1.5% | Activity (PC-12 [12]): 28.4%

Reference: ChEMBL document CHEMBL5370539, “Oxazole-4-carboxamide/butylated hydroxytoluene hybrids with GSK-3β inhibitory and neuroprotective activities against Alzheimer's disease” (Eur J Med Chem, 2023)
